Results on one substance are retold here after patent publication US4442087A (priority 1979, dated 1984).

Some results are limits rather than exact numbers.

Common to all, as to format: cell-based
Test [1] has as its system Rabbit spleen cells (RK-13 cells used for determination). The test is described as follows: IF induction in vitro, rabbit cells. Conditions: 1.0 μg/ml, 25 °C 24 h. Here is the method: (§1) (A) IF induction and determination of IF activity:
(§2) A spleen cell suspension (10^7 cells/ml) was prepared by the method of hereinafter described Experiment 1 using an Eagle MEM medium (commercial product of Nissui Seiyaku K.K., Tokyo) containing a 10% calf serum (which was replaced by a 10% fetal cattle serum in the cases of human tests), each of which fraction (1 ml) was added with the sample of the active substance at a given concentration and incubated at a given temperature. The cultured liquor was centrifuged to separate a supernatant for use to determine the IF activity. Furthermore, in the cases of human tests, the fresh spleen was collected from a person (adult killed by external wounds) and used for the preparation of a leucocytes suspension on each occasion, and also blood was collected from the vein at the armpit of a person (adult, healthy) from which the serum was separated to use for the preparation of a serum suspension on each occasion. The IF activities were determined by using the cells shown in Table 5 by the method of hereinafterdescribed Experiment 1 and indicated in Table 6.

Test [2] relates to Mouse spleen cells (L cells used for determination). Description: IF induction in vitro, mouse cells. As to conditions: 1.0 μg/ml, 37 °C 24 h. Here is the method: as §1, §2
Test [3] concerns Human spleen cells (FL cells used for determination). The test is described as follows: IF induction in vitro, human spleen cells. Conditions: 1.0 μg/ml, 25 °C 24 h. On the procedure:
as §1, §2

Turning to Poly: IC, the results for the “IF activity in vitro” value in test [1], in test [2] and in test [3] were 220, 120 and less than 5, respectively.
